According to US12162840B2, “Herbicidal compositions” (SYNGENTA PARTICIPATIONS AG, priority 2018, dated 2024):

What was measured:
Assay type in all cases: in vivo
[1] = system: warm season plant species; assay: B2 Post-emergence efficacy Test 2, warm season plant species; conditions: 15 days after application, 0-100 scale, 0=no damage, 100=total kill; for Herbicidal activity, ABUTH: Abutilon theophrasti; for Herbicidal activity, AMARE: Amaranthus retroflexus; for Herbicidal activity, BIDPI: Bidens pilosa; for Herbicidal activity, BRAPL: Brachiaria plantaginea; for Herbicidal activity, DIGSA: Digitaria sanguinalis; for Herbicidal activity, ECHCG: Echinochloa crus galli; for Herbicidal activity, ELEIN: Eleisine indica; for Herbicidal activity, EPHHL: Euphorbia hetrophylla; for Herbicidal activity, GLXMA: Glycine max; for Herbicidal activity, IPOHE: Ipomoea hederacea; for Herbicidal activity, ORYSA: Orysa sativa; for Herbicidal activity, PANMI: Panicum miliaceum; for Herbicidal activity, SETFA: Setaria faberi; for Herbicidal activity, SIDSP: Sida spinosa; for Herbicidal activity, SORVU: Sorghum bicolour; for Herbicidal activity, XANST: Xanthium strumarium; for Herbicidal activity, ZEAMX: Zea mays
Description: Seeds of a variety of test species (see Table B1) were sown in standard soil in pots. After cultivation for 12 days (post-emergence) under controlled conditions in a glasshouse (at 24/18° C. or 20/16° C., at day/night; 16 hours light; 65% humidity), the plants were sprayed with an aqueous spray solution derived from the formulation of the technical active ingredient dissolved in IF50 (see Table B2 for composition) and adjuvant (Genapol XO80) was added to the spray solution at a rate of 0.2% v/v. [table] [table] After application, the test plants were grown in a glasshouse under controlled conditions (as above) and watered twice daily. Herbicidal activity was evaluated 15 days after application on a 0-100 scale. The results, where 0=no damage to test plant and 100=total kill of test plant are shown below in Tables 6 to 9.

[2] = system: Lolium perenne (LOLPE); assay: B1 Post-emergence efficacy Test 1; conditions: post-emergence application, 1000 g/ha, evaluated after 13 days
Description: (§1) Seeds of a variety of test species are sown in standard soil in pots:—Solanum nigrum (SOLNI), Amaranthus retoflexus (AMARE), Setaria faberi (SETFA), Alopecurus myosuroides (ALOMY), Echinochloa crus-galli (ECHCG), Ipomoea hederacea (IPOHE), Lolium perenne (LOLPE). After 8 days cultivation (post-emergence) under controlled conditions in a glasshouse (at 24/16° C., day/night; 14 hours light; 65% humidity), the plants are sprayed with an aqueous spray solution derived from the formulation of the technical active ingredient in acetone/water (50:50) solution containing 0.5% Tween 20 (polyoxyethylene sorbitan monolaurate, CAS RN 9005-64-5). Compounds are applied at 1000 g/ha. The test plants are then grown in a glasshouse under controlled conditions in a glasshouse (at 24/16° C., day/night; 14 hours light; 65% humidity) and watered twice daily. After 13 days, the test is evaluated for the percentage damage caused to the plant. The biological activities are assessed on a five point scale (5=80-100%; 4=60-79%; 3=40-59%; 2=20-39%; 1=0-19%). A blank value in the table is indicative that the compound was not tested on that species.

[3] = system: Amaranthus retoflexus (AMARE); assay: B1 Post-emergence efficacy Test 1; conditions: post-emergence application, 1000 g/ha, evaluated after 13 days
Description: as §1

[4] = system: Ipomoea hederacea (IPOHE); assay: B1 Post-emergence efficacy Test 1; conditions: post-emergence application, 1000 g/ha, evaluated after 13 days
Description: as §1

[5] = system: Solanum nigrum (SOLNI); assay: B1 Post-emergence efficacy Test 1; conditions: post-emergence application, 1000 g/ha, evaluated after 13 days
Description: as §1

[6] = system: Echinochloa crus-galli (ECHCG); assay: B1 Post-emergence efficacy Test 1; conditions: post-emergence application, 1000 g/ha, evaluated after 13 days
Description: as §1

[7] = system: Setaria faberi (SETFA); assay: B1 Post-emergence efficacy Test 1; conditions: post-emergence application, 1000 g/ha, evaluated after 13 days
Description: as §1

## Cc1nn(C)c(=O)c(-c2c(F)ccc(Cl)c2CCc2ccc(F)cc2)c1O [Compound 1.048]
[1]; 15 g/Ha
  Herbicidal activity, ABUTH: 60
  Herbicidal activity, AMARE: 60
  Herbicidal activity, BIDPI: 70
  Herbicidal activity, BRAPL: 20
  Herbicidal activity, DIGSA: 0
  Herbicidal activity, ECHCG: 60
  Herbicidal activity, ELEIN: 0
  Herbicidal activity, EPHHL: 50
  Herbicidal activity, GLXMA: 70
  Herbicidal activity, IPOHE: 70
  Herbicidal activity, ORYSA: 0
  Herbicidal activity, PANMI: 0
  Herbicidal activity, SETFA: 0
  Herbicidal activity, SIDSP: 80
  Herbicidal activity, SORVU: 0
  Herbicidal activity, ZEAMX: 0
[1]; 30 g/Ha
  Herbicidal activity, ABUTH: 80
  Herbicidal activity, AMARE: 80
  Herbicidal activity, BIDPI: 70
  Herbicidal activity, BRAPL: 60
  Herbicidal activity, DIGSA: 10
  Herbicidal activity, ECHCG: 80
  Herbicidal activity, ELEIN: 50
  Herbicidal activity, EPHHL: 70
  Herbicidal activity, GLXMA: 80
  Herbicidal activity, IPOHE: 80
  Herbicidal activity, ORYSA: 0
  Herbicidal activity, PANMI: 20
  Herbicidal activity, SETFA: 40
  Herbicidal activity, SIDSP: 80
  Herbicidal activity, SORVU: 30
  Herbicidal activity, ZEAMX: 10
[1]; 60 g/Ha
  Herbicidal activity, ABUTH: 90
  Herbicidal activity, AMARE: 90
  Herbicidal activity, BIDPI: 70
  Herbicidal activity, BRAPL: 80
  Herbicidal activity, DIGSA: 20
  Herbicidal activity, ECHCG: 80
  Herbicidal activity, ELEIN: 60
  Herbicidal activity, EPHHL: 90
  Herbicidal activity, GLXMA: 90
  Herbicidal activity, IPOHE: 100
  Herbicidal activity, ORYSA: 0
  Herbicidal activity, PANMI: 30
  Herbicidal activity, SETFA: 40
  Herbicidal activity, SIDSP: 80
  Herbicidal activity, SORVU: 70
  Herbicidal activity, XANST: 90
  Herbicidal activity, ZEAMX: 50
[1]; 125 g/Ha
  Herbicidal activity, ABUTH: 90
  Herbicidal activity, AMARE: 90
  Herbicidal activity, BIDPI: 70
  Herbicidal activity, BRAPL: 80
  Herbicidal activity, DIGSA: 20
  Herbicidal activity, ECHCG: 90
  Herbicidal activity, ELEIN: 60
  Herbicidal activity, EPHHL: 90
  Herbicidal activity, GLXMA: 90
  Herbicidal activity, IPOHE: 100
  Herbicidal activity, ORYSA: 0
  Herbicidal activity, PANMI: 80
  Herbicidal activity, SETFA: 70
  Herbicidal activity, SIDSP: 90
  Herbicidal activity, SORVU: 70
  Herbicidal activity, XANST: 90
  Herbicidal activity, ZEAMX: 50
[1]; 250 g/Ha
  Herbicidal activity, ABUTH: 90
  Herbicidal activity, AMARE: 100
  Herbicidal activity, BIDPI: 100
  Herbicidal activity, BRAPL: 90
  Herbicidal activity, DIGSA: 50
  Herbicidal activity, ECHCG: 90
  Herbicidal activity, ELEIN: 80
  Herbicidal activity, EPHHL: 100
  Herbicidal activity, GLXMA: 90
  Herbicidal activity, IPOHE: 100
  Herbicidal activity, ORYSA: 10
  Herbicidal activity, PANMI: 100
  Herbicidal activity, SETFA: 80
  Herbicidal activity, SIDSP: 90
  Herbicidal activity, SORVU: 80
  Herbicidal activity, XANST: 90
  Herbicidal activity, ZEAMX: 70
[1]; 500 g/Ha
  Herbicidal activity, ABUTH: 100
  Herbicidal activity, AMARE: 100
  Herbicidal activity, BIDPI: 100
  Herbicidal activity, BRAPL: 100
  Herbicidal activity, DIGSA: 70
  Herbicidal activity, ECHCG: 100
  Herbicidal activity, ELEIN: 80
  Herbicidal activity, EPHHL: 100
  Herbicidal activity, GLXMA: 100
  Herbicidal activity, IPOHE: 100
  Herbicidal activity, ORYSA: 30
  Herbicidal activity, PANMI: 100
  Herbicidal activity, SETFA: 100
  Herbicidal activity, SIDSP: 90
  Herbicidal activity, SORVU: 90
  Herbicidal activity, XANST: 100
  Herbicidal activity, ZEAMX: 100
[2]
  percentage damage caused to the plant, five point scale, LOLPE: 5 (5=80-100%)
[3]
  percentage damage caused to the plant, five point scale, AMARE: 5 (5=80-100%)
[4]
  percentage damage caused to the plant, five point scale, IPOHE: 5 (5=80-100%)
[5]
  percentage damage caused to the plant, five point scale, SOLNI: 5 (5=80-100%)
[6]
  percentage damage caused to the plant, five point scale, ECHCG: 5 (5=80-100%)
[7]
  percentage damage caused to the plant, five point scale, SETFA: 5 (5=80-100%)
